According to the supplement of paper PMC11451515:

Tested on: P12-Ichikawa
Experiment: cell viability relative to DMSO control; higher = less cytotoxic
Settings: 48 h
Summary of the method: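 Three leukemia lines were tested: NOMO1 and SEM at 500 cells/well and P12-Ichikawa at 1000 cells/well. Each was adapted for at least four passages in each medium and seeded in 5 μl in 1536-well plates, and library compounds in DMSO were pin-dosed from 47 μM to 0.79 nM in 11 threefold steps. After 48 h at 37°C, CellTiter-Glo One luminescence was read. Viability is a percentage relative to DMSO wells on each plate, with cell-free wells as background.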

[1] = RPMI 5 mM glucose + 10% FBS, 0.000781 µM
[2] = RPMI 5 mM glucose + 10% FBS, 0.00234 µM
[3] = RPMI 5 mM glucose + 10% FBS, 0.00702 µM
[4] = RPMI 5 mM glucose + 10% FBS, 0.0211 µM
[5] = RPMI 5 mM glucose + 10% FBS, 0.0632 µM
[6] = RPMI 5 mM glucose + 10% FBS, 0.19 µM
[7] = RPMI 5 mM glucose + 10% FBS, 0.569 µM
[8] = RPMI 5 mM glucose + 10% FBS, 1.71 µM
[9] = RPMI 5 mM glucose + 10% FBS, 5.12 µM
[10] = RPMI 5 mM glucose + 10% FBS, 15.4 µM
[11] = RPMI 5 mM glucose + 10% FBS, 46.1 µM
[12] = HPLM + 10% dialyzed FBS, 0.000781 µM
[13] = HPLM + 10% dialyzed FBS, 0.00234 µM
[14] = HPLM + 10% dialyzed FBS, 0.00702 µM
[15] = HPLM + 10% dialyzed FBS, 0.0211 µM
[16] = HPLM + 10% dialyzed FBS, 0.0632 µM
[17] = HPLM + 10% dialyzed FBS, 0.19 µM
[18] = HPLM + 10% dialyzed FBS, 0.569 µM
[19] = HPLM + 10% dialyzed FBS, 1.71 µM
[20] = HPLM + 10% dialyzed FBS, 5.12 µM
[21] = HPLM + 10% dialyzed FBS, 15.4 µM
[22] = HPLM + 10% dialyzed FBS, 46.1 µM
[23] = RPMI 5 mM glucose + 10% dialyzed FBS, 0.000781 µM
[24] = RPMI 5 mM glucose + 10% dialyzed FBS, 0.00234 µM
[25] = RPMI 5 mM glucose + 10% dialyzed FBS, 0.00702 µM
[26] = RPMI 5 mM glucose + 10% dialyzed FBS, 0.0211 µM
[27] = RPMI 5 mM glucose + 10% dialyzed FBS, 0.0632 µM
[28] = RPMI 5 mM glucose + 10% dialyzed FBS, 0.19 µM
[29] = RPMI 5 mM glucose + 10% dialyzed FBS, 0.569 µM
[30] = RPMI 5 mM glucose + 10% dialyzed FBS, 1.71 µM
[31] = RPMI 5 mM glucose + 10% dialyzed FBS, 5.12 µM
[32] = RPMI 5 mM glucose + 10% dialyzed FBS, 15.4 µM
[33] = RPMI 5 mM glucose + 10% dialyzed FBS, 46.1 µM

SMILES | cell viability [1] [%] | cell viability [2] [%] | cell viability [3] [%] | cell viability [4] [%] | cell viability [5] [%] | cell viability [6] [%] | cell viability [7] [%] | cell viability [8] [%] | cell viability [9] [%] | cell viability [10] [%] | cell viability [11] [%] | cell viability [12] [%] | cell viability [13] [%] | cell viability [14] [%] | cell viability [15] [%] | cell viability [16] [%] | cell viability [17] [%] | cell viability [18] [%] | cell viability [19] [%] | cell viability [20] [%] | cell viability [21] [%] | cell viability [22] [%] | cell viability [23] [%] | cell viability [24] [%] | cell viability [25] [%] | cell viability [26] [%] | cell viability [27] [%] | cell viability [28] [%] | cell viability [29] [%] | cell viability [30] [%] | cell viability [31] [%] | cell viability [32] [%] | cell viability [33] [%]
CC(C)(C)C1=NC2=C([NH]1)C3=CC=C(F)C=C3C4=C2\C=C/NC4=O | 118 | 133 | 123 | 134 | 123 | 122 | 113 | 108 | 69.7 | 17.8 | 72.1 | – | – | – | – | – | – | – | – | – | – | – | – | – | – | – | – | – | – | – | – | – | –
CC1(C)OC/2=C(\[C@H](NCC3=CC=CC=C3)[C@@H]1O)C(=O)C4=CC=CC=C4C2=O | 100 | 102 | 102 | 115 | 96.4 | 99.8 | 98.8 | 88.3 | 71.8 | 18.7 | 6.26 | 102 | 106 | 107 | 104 | 106 | 108 | 102 | 94 | 96.4 | 47.8 | 6.77 | 98.5 | 94.9 | 95.1 | 101 | 101 | 101 | 101 | 96.7 | 75.8 | 54.6 | 5.89
CCCCOc1ccc(C(=O)Nc2ccc(F)cc2F)cc1 | 78.9 | 91.8 | 82 | 92.9 | 89.4 | 89.5 | 89.4 | 93 | 89 | 88.1 | 84.3 | 83.2 | 95.7 | 83.5 | 86.5 | 90.6 | 85.3 | 89.1 | 97.1 | 96 | 102 | 67.1 | 84 | 83.7 | 79.2 | 87.1 | 83.9 | 80.2 | 86.7 | 89.3 | 92.5 | 87.3 | 86.6
Cn1cc(-c2ccncc2)c(-c2ccc(OCc3ccc4ccccc4n3)cc2)n1 | 121 | 127 | 120 | 132 | 122 | 121 | 120 | 120 | 104 | 65.8 | 53.7 | 120 | 121 | 122 | 121 | 126 | 123 | 115 | 118 | 109 | 91.5 | 75.5 | – | – | – | – | – | – | – | – | – | – | –
CN(C)[C@H]\1[C@@H]2[C@@H](O)[C@@H]\3C(=C)C4=C(C(=CC=C4)O)C(=O)C3=C(\O)[C@@]2(O)C(=O)\C(=C1O)C(N)=O | 115 | 120 | 124 | 126 | 115 | 128 | 120 | 125 | 122 | 111 | 99.1 | – | – | – | – | – | – | – | – | – | – | – | 126 | 122 | 119 | 123 | 129 | 128 | 118 | 117 | 125 | 119 | 107
COc1cc2nc(-c3ccc(N4CCN(C)CC4)cc3)nc(NCCN3CCOCC3)c2cc1OC | 113 | 120 | 108 | 113 | 116 | 111 | 104 | 67 | 36.7 | 5.75 | 2.84 | 111 | 121 | 109 | 115 | 109 | 110 | 81.7 | 57.9 | 50 | 23.2 | 3.38 | 113 | 108 | 118 | 103 | 106 | 106 | 96.3 | 65.8 | 22.5 | 5.42 | 2.71
CN(C)CCC=C1C2=C(C=CC=C2)\C=C/C3=C1C=CC=C3 | – | – | – | – | – | – | – | – | – | – | – | 109 | 118 | 114 | 117 | 120 | 123 | 106 | 105 | 96.9 | 105 | 87.1 | 115 | 109 | 105 | 115 | 119 | 107 | 111 | 102 | 106 | 105 | 84.1
CNC(=O)c1c(F)cccc1Nc1nc(Nc2cc3c(cc2OC)CCN3C(=O)CN(C)C)nc2[nH]ccc12 | 112 | 113 | 105 | 123 | 114 | 122 | 120 | 110 | 113 | 113 | 51.3 | 91.4 | 97 | 110 | 110 | 111 | 109 | 112 | 108 | 81.5 | 87.4 | 51 | 110 | 117 | 120 | 119 | 129 | 122 | 121 | 118 | 110 | 103 | 43.6
O=C(NC1CC1)c1cccc(-c2ccc3c(NC(=O)C4CC4)n[nH]c3c2)c1 | 111 | 114 | 113 | 127 | 121 | 124 | 110 | 113 | 101 | 43.5 | 12.6 | 109 | 109 | 108 | 113 | 114 | 113 | 112 | 112 | 95.2 | 39.5 | 13.1 | 110 | 120 | 118 | 121 | 118 | 116 | 114 | 112 | 102 | 55.3 | 24.5
